The values below come from ChEMBL document CHEMBL3039007, “Structure-based identification of OATP1B1/3 inhibitors” (Mol Pharmacol, 2013).

The target in data set [1] is T1, Solute carrier organic anion transporter family member 1B1 (Homo sapiens, UniProt Q9Y6L6).
T1 sequence (Q9Y6L6 whole entry): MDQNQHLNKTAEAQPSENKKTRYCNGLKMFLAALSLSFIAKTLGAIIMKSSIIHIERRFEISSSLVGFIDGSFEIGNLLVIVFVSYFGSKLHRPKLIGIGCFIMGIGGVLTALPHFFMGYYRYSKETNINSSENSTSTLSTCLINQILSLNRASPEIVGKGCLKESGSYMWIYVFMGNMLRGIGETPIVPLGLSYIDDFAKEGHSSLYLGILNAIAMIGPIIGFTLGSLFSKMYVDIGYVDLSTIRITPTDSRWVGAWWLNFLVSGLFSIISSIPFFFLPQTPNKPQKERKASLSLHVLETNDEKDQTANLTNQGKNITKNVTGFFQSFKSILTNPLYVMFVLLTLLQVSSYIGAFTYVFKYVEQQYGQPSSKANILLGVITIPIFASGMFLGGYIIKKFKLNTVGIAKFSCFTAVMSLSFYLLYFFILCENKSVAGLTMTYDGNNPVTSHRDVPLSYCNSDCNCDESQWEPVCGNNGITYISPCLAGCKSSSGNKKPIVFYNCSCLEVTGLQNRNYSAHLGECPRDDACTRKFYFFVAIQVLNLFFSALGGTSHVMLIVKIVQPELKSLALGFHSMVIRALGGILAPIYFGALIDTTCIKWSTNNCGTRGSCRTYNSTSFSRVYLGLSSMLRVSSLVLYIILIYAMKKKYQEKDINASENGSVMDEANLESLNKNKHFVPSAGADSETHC
Conditions: chinese hamster, cho, 10 µM.

Data set [2] deals with T2, Solute carrier organic anion transporter family member 1B3 (Homo sapiens, UniProt Q9NPD5).
T2 sequence (Q9NPD5 whole entry): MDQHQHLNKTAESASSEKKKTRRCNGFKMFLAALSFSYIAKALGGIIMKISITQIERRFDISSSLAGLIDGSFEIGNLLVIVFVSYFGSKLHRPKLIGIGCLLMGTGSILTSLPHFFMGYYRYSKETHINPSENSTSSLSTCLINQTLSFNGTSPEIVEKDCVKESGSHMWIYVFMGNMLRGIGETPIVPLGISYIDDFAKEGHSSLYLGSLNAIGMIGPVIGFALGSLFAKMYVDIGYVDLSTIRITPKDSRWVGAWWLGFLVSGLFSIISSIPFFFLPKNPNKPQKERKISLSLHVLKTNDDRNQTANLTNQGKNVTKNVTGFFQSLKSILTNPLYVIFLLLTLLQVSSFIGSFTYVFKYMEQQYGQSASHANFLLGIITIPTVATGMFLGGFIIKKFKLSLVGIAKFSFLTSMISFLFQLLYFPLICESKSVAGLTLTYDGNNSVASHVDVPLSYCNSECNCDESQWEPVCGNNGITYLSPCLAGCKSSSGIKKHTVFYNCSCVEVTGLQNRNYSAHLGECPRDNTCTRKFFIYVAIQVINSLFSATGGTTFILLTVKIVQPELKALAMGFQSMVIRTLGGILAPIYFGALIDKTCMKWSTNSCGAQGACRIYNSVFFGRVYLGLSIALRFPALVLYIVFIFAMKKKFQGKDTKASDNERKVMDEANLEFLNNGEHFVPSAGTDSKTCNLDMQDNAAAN
Conditions: chinese hamster, cho, 10 µM.

For `CC(N/C(=N\C#N)Nc1ccncc1)C(C)(C)C` (centres undefined) [PINACIDIL ANHYDROUS], the values for the residual activity in data set [1] and in data set [2] were 96.43% and 90.66%, respectively.

In the case of `O=C1C[C@@H](c2ccccc2)Oc2cc(O)cc(O)c21` [PINOCEMBRIN], the residual activity – broadly, the signal under treatment as a percentage of the control signal – in data set [1] amounted to 202%; in data set [2] it was 97.25%.

Consider `Oc1cc(O)cc(/C=C/c2ccccc2)c1` [PINOSYLVIN], for which the results for the residual activity in data set [1] and in data set [2] were 133.5% and 114.6%, respectively.

Regarding `CCc1ccc(CCOc2ccc(CC3SC(=O)NC3=O)cc2)nc1.Cl` (centres undefined) [PIOGLITAZONE HYDROCHLORIDE], the residual activity in data set [1] amounted to 122.7%; in data set [2] it was 88.74%.

Consider `CCn1cc(C(=O)O)c(=O)c2cnc(N3CCNCC3)nc21` [PIPEMIDIC ACID], for which the residual activity in data set [1] is recorded as 111.8%; in data set [2], 131.1%.

Take `CC[N+]1(C)CCCC(OC(=O)C(O)(c2ccccc2)c2ccccc2)C1.[Br-]` (centres undefined) [PIPENZOLATE BROMIDE]: the residual activity is 70.99% in data set [1] and 86.01% in data set [2].

On to `C1CNCCN1` [PIPERAZINE], for which the results for the residual activity in data set [1] and in data set [2] were 77.78% and 102.1%, respectively.

Regarding `CCN1CCCC(OC(=O)C(c2ccccc2)c2ccccc2)C1.Cl` (centres undefined) [PIPERIDOLATE HYDROCHLORIDE], the results for the residual activity in data set [1] and in data set [2] were 65.65% and 96%, respectively.

`O=C(/C=C/C=C/c1ccc2c(c1)OCO2)N1CCCCC1` [PIPERINE]: the values for the residual activity in data set [1] and in data set [2] were 186.2% and 97.82%, respectively.

For the compound `O=C(CCBr)N1CCN(C(=O)CCBr)CC1` [PIPOBROMAN], the residual activity turned out to be 62.45% in data set [1] and 82.4% in data set [2].

As for `Cc1nc2ccccn2c(=O)c1CCN1CCC(C(=O)c2ccc(F)cc2)CC1` [PIRENPERONE], the residual activity in data set [1] worked out at 93.87%; in data set [2], 102.6%.

For `CN1CCN(CC(=O)N2c3ccccc3C(=O)Nc3cccnc32)CC1.Cl.Cl` [PIRENZEPINE HYDROCHLORIDE], the residual activity in data set [1] is reported as 103.8%; in data set [2] it was 100.6%.

With `CCn1cc(C(=O)O)c(=O)c2cnc(N3CCCC3)nc21` [PIROMIDIC ACID], the residual activity was determined as 79.57% in data set [1] and 101% in data set [2].

Regarding `CN1C(C(=O)Nc2ccccn2)=C(O)c2ccccc2S1(=O)=O` [PIROXICAM], the residual activity is given as 68.52% in data set [1] and 87.59% in data set [2].

As for `O=C(O)[C@H](O)[C@@](O)(Cc1ccc(O)cc1)C(=O)O` [PISCIDIC ACID], the values for the residual activity in data set [1] and in data set [2] were 92.25% and 90.37%, respectively.

`COc1cc([C@@H]2c3cc4c(cc3[C@H](O)[C@H]3COC(=O)[C@H]23)OCO4)cc(OC)c1OC` [PODOFILOX]: the residual activity in data set [1] came out at 63.87%; in data set [2], 95.19%.

Regarding `CC(C)=CCc1c2c(c3occ(-c4ccc(O)c(O)c4)c(=O)c3c1O)C=CC(C)(C)O2` [POMIFERIN], the residual activity in data set [1] is given as 114.2%; in data set [2] it was 87.87%.

Turning to `O=C(O)Cc1nn(Cc2ccc(Br)cc2F)c(=O)c2ccccc12` [PONALRESTAT], the residual activity in data set [1] is 139.9%; in data set [2] it was 83.62%.

As to `CC(=O)Nc1ccc(OCC(O)CNC(C)C)cc1` (centres undefined) [PRACTOLOL], the residual activity in data set [1] is 107.1%; in data set [2] it was 99.03%.

Take `CS(=O)(=O)[O-].C[n+]1ccccc1C=NO` [PRALIDOXIME MESYLATE]: the residual activity in data set [1] is 73.31%; in data set [2], 98.72%.

Consider `CCCCOc1ccc(OCCCN2CCOCC2)cc1.Cl` [PRAMOXINE HYDROCHLORIDE], for which the residual activity in data set [1] came to 112%; in data set [2], 99.07%.

Take `CC[C@H](C)C(=O)O[C@H]1C[C@H](O)C=C2C=C[C@H](C)[C@H](CC[C@@H](O)C[C@@H](O)CC(=O)[O-])[C@H]21.[Na+]` [PRAVASTATIN SODIUM]: the figures for the residual activity in data set [1] and in data set [2] were 100.3% and 102.8%, respectively.

For `O=C(C1CCCCC1)N1CC(=O)N2CCc3ccccc3C2C1` (centres undefined) [PRAZIQUANTEL], the residual activity is 162.2% in data set [1] and 125.5% in data set [2].

Take `COc1cc2nc(N3CCN(C(=O)c4ccco4)CC3)nc(N)c2cc1OC.Cl` [PRAZOSIN HYDROCHLORIDE]: the results for the residual activity in data set [1] and in data set [2] were 99.58% and 90.48%, respectively.

Take `CC(=O)OCC(=O)[C@@]1(O)CC[C@H]2[C@@H]3CCC4=CC(=O)C=C[C@]4(C)[C@H]3[C@@H](O)C[C@@]21C` [PREDNISOLONE ACETATE]: the residual activity in data set [1] stood at 63.69%; in data set [2] it was 106.7%.

For the compound `C[C@]12C=CC(=O)C=C1CC[C@@H]1[C@@H]2[C@@H](O)C[C@@]2(C)[C@H]1CC[C@]2(O)C(=O)CO` [PREDNISOLONE], the residual activity in data set [1] came to 79.83%; in data set [2] it was 110.4%.

In the case of `CC(C)C[C@H](CN)CC(=O)O` [PREGABALIN], the residual activity was 120.6% in data set [1] and 101.4% in data set [2].

On to `CC(C)=CCOc1cc2oc(=O)ccc2cc1O` [PRENYLETIN], for which the residual activity in data set [1] was 176.8%; in data set [2], 136%.

As to `CS(=O)(=O)O.OC(CCN1CCCCC1)(c1ccccc1)c1ccccc1` [PRIDINOL METHANESULFONATE], the values for the residual activity in data set [1] and in data set [2] were 95.92% and 95.39%, respectively.

For `CCCNC(C)C(=O)Nc1ccccc1C.Cl` (centres undefined) [PRILOCAINE HYDROCHLORIDE], the values for the residual activity in data set [1] and in data set [2] were 87.24% and 74.6%, respectively.

`CCC1(c2ccccc2)C(=O)NCNC1=O` [PRIMIDONE]: the residual activity is on record as 78.09% in data set [1] and 90.17% in data set [2].

For the compound `COC(=O)[C@]1(C)CC[C@]2(C)CC[C@]3(C)C4=CC=C5C(=CC(=O)C(O)=C5C)[C@]4(C)CC[C@@]3(C)[C@@H]2C1` [PRISTIMERIN], the results for the residual activity in data set [1] and in data set [2] were 112.2% and 99.45%, respectively.

On to `COC(=O)[C@]1(C)CC[C@]2(C)CC[C@]3(C)C4=CCc5c(cc(OC(C)=O)c(OC(C)=O)c5C)[C@]4(C)CC[C@@]3(C)[C@@H]2C1` [PRISTIMEROL DIACETATE], for which the residual activity in data set [1] is on record as 94.14%; in data set [2], 83.45%.

Turning to `COC(=O)[C@]1(C)CC[C@]2(C)CC[C@]3(C)C4=CCc5c(cc(O)c(O)c5C)[C@]4(C)CC[C@@]3(C)[C@@H]2C1` [PRISTIMEROL], the results for the residual activity in data set [1] and in data set [2] were 70.1% and 86.64%, respectively.

With `CCCC(C(=O)OCCN(CC)CC)(c1ccccc1)c1ccccc1.Cl` [PROADIFEN HYDROCHLORIDE], the residual activity amounted to 36.21% in data set [1] and 53.55% in data set [2].

Regarding `CCCN(CCC)S(=O)(=O)c1ccc(C(=O)O)cc1` [PROBENECID], the figures for the residual activity in data set [1] and in data set [2] were 81.99% and 89.44%, respectively.

In the case of `CC(C)(Sc1cc(C(C)(C)C)c(O)c(C(C)(C)C)c1)Sc1cc(C(C)(C)C)c(O)c(C(C)(C)C)c1` [PROBUCOL], the residual activity is 102.2% in data set [1] and 90.56% in data set [2].

`CCN(CC)CCNC(=O)c1ccc(N)cc1.Cl` [PROCAINAMIDE HYDROCHLORIDE]: the residual activity in data set [1] is given as 81.68%; in data set [2], 104.4%.

For the compound `CCN(CC)CCOC(=O)c1ccc(N)cc1.Cl` [PROCAINE HYDROCHLORIDE], the figures for the residual activity in data set [1] and in data set [2] were 104.1% and 104.2%, respectively.

As to `CC(=O)[C@H]1CC[C@H]2[C@@H]3CCC4=CC(=O)CC[C@]4(C)[C@H]3CC[C@]12C` [PROGESTERONE], the residual activity in data set [1] was found to be 52.43%; in data set [2], 92%.

`CCCN(CCC)C(=O)C(CCC(=O)O)NC(=O)c1ccccc1` (centres undefined) [PROGLUMIDE]: the figures for the residual activity in data set [1] and in data set [2] were 105% and 104.8%, respectively.

As to `CC(C)NC(=N)NC(=N)Nc1ccc(Cl)cc1.Cl` [PROGUANIL HYDROCHLORIDE], the residual activity is 77.71% in data set [1] and 114.8% in data set [2].
